# Laboratory results from patent publication US20200109362A1 (priority 2016, published 2020).
# “Also recorded” adds a separate entry of the source.
# Assays:
# Format in all cases: cell-based, human
# TK6+MGMT cells = assay: ToxChip (μCC) microcolony toxicity assay, TK6+MGMT cells; settings: TK6+MGMT vs TK6
# TK6 cells = test system: TK6 cells
# MCL-5 cells = assay: ToxChip (μCC) microcolony toxicity assay, MCL-5 cells
compound,measurement,setting,value
"O=NN(CCCl)C(=O)NCCCl [BCNU, N,N′-bis (2-chloroethyl)-N-nitrosourea]",difference in survival between TK6 and TK6+MGMT when challenged,TK6+MGMT cells; PFF method,approximately 1 log
same,difference in sensitivity between TK6 and TK6+MGMT,"TK6+MGMT cells; μCC, treatment 1 hour at 37° C.",significant difference in sensitivity; also recorded: MGMT significantly rescues TK6 cells
same,PF value as % of the control PF,"TK6 cells; TK6 cells, 10 μM BCNU",96%
same,PFF (total PF fluorescence) as % of the control PFF,"TK6 cells; TK6 cells, 10 μM BCNU",53%
same,microcolony growth (F/M distribution) after treatment,"TK6 cells; TK6 cells, BCNU 1 hour, up to 72 hours growth",less able to form larger colonies; also recorded: inhibits growth of colonies
aflatoxin B1 [AFB1],difference in sensitivity between TK6 and MCL-5 cells,MCL-5 cells,more than 2 log
same,sensitivity of MCL-5 cells compared with TK6 cells,MCL-5 cells,significantly more sensitive
same,toxicity to TK6 cells,TK6 cells,relatively unaffected
"CC(=O)N1CCN(c2ccc(OCC3COC(Cn4ccnc4)(c4ccc(Cl)cc4Cl)O3)cc2)CC1 (stereo not drawn) [KET, ketoconazole]",rescue of MCL-5 cells from AFB1 toxicity by co-treatment,MCL-5 cells,significant rescue; also recorded: significantly rescues
